For 19 molecules, IC50 and inhibition results are on record in patent EP3478687B1 (Daewoong Pharmaceutical Co., Ltd., priority 2016, dated 2018).

Assay [1] addresses T1, Recombinant purified human BTK (Homo sapiens, UniProt Q06187).
T1 construct: purchased Promega V9071
The experiment in a line: BTK kinase inhibitory activity, ADP-Glo kinase assay (Promega V9071). Type of assay: biochemical. As to conditions: for IC50: ATP 10 uM, 8 ng BTK per reaction, 1 hour 30 °C, chemiluminescence; for inhibition at 0.1 µM: @100nM compound. The method, then:
(§1) JAK3 and BTK kinase inhibitory activities were measured for the compounds prepared in the above Examples through in vitro analysis on the ADP Glow (Glo) platform.
(§2) Specifically, the inhibitory activities of JAK3 and BTK kinase were measured using a JAK3 kinase assay kit (Promega, V9441) and a BTK kinase assay kit (Promega, V9071) which were purchased from Promega. Recombinant purified human JAK3 and BTK were diluted with 1 x kinase reaction buffer (JAK3: 40 mM Tris-Cl, pH 7.5, 20 mM MgCh, 0.1 mg/mL BSA and 50 uM DTT / BTK: 40 mM Tris-Cl, pH 7.5, 20 mM MgCl2, 0.1 mg/mL BSA, 2 mM MnCl2 and 50 uM DTT) and added to a 96 well plate (JAK3: final concentration of 4 ng per reaction/BTK: final concentration of 8 ng per reaction). The compounds were treated so as to be finally a 1% DMSO aqueous solution, and a substrate cocktail containing ATP (JAK3: final concentration of 5 uM / BTK: final concentration of 10 uM) and 0.2 µg/µL of Poly(Glu4, Tyr1) peptide (JAK3 and BTK final concentration) in the total 25 µL reactants was added to a 96-well plate to initiate enzymatic reaction. After incubation (30 °C) for 1 hour, equivalent volume (25 µL per reaction) of ADP Glo was added and incubated (30 °C) for 40 minutes at room temperature. Then, a kinase detection reagent (50 µL per reaction) was added and incubated (30 °C) for 30 minutes at room temperature. The kinase activity was measured by chemiluminescence according to the instructions of ADP Glo kinase assay kit, and the inhibitory activity of the compounds according to the present invention was calculated. For the analysis of the results of each compound, Microsoft Excel was used, and IC50 values were calculated by SigmaPlot software.

The target of assay [2] is T2, Recombinant purified human JAK3 (Homo sapiens, UniProt P52333).
T2 construct: purchased Promega V9441
T2 sequence (P52333 1-1124): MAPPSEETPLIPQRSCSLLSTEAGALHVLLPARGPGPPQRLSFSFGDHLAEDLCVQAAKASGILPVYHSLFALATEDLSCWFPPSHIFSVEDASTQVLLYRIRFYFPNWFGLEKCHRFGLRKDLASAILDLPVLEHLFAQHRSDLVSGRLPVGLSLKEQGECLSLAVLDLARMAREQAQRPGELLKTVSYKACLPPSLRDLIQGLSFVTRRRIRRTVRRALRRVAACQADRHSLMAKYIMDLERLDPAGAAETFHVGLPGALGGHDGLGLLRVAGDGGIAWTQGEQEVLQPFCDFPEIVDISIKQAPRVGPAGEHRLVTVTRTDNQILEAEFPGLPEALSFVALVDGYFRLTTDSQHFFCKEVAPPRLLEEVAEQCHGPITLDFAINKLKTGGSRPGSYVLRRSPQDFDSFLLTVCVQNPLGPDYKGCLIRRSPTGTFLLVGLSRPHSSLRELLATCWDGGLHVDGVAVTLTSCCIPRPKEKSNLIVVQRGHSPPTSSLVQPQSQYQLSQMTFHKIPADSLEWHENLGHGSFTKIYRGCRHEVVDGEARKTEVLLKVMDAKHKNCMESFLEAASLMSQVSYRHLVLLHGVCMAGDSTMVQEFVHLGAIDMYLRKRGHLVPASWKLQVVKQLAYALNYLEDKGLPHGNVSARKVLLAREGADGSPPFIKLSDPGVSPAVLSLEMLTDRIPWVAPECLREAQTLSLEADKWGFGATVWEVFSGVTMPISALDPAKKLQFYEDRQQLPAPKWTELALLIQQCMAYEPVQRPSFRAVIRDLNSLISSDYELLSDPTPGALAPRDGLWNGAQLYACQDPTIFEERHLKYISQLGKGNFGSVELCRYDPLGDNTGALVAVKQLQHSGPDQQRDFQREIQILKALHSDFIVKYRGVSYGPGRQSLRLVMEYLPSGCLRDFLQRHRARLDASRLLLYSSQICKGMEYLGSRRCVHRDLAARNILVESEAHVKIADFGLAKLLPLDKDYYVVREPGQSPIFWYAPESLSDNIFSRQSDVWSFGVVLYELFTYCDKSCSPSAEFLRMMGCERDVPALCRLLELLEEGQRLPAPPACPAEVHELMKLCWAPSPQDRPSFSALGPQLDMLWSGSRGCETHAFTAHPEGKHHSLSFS
The experiment in a line: JAK3 kinase inhibitory activity, ADP-Glo kinase assay (Promega V9441). Type of assay: biochemical. To be noted: for IC50: ATP 5 uM, 4 ng JAK3 per reaction, 1 hour 30 °C, chemiluminescence; for inhibition at 0.1 µM: @100nM compound. The method, then:
as §1, §2

The mark [3] stands for this setting: printed in the JAK3 IC50 column.

T1 sequence (Q06187 whole entry): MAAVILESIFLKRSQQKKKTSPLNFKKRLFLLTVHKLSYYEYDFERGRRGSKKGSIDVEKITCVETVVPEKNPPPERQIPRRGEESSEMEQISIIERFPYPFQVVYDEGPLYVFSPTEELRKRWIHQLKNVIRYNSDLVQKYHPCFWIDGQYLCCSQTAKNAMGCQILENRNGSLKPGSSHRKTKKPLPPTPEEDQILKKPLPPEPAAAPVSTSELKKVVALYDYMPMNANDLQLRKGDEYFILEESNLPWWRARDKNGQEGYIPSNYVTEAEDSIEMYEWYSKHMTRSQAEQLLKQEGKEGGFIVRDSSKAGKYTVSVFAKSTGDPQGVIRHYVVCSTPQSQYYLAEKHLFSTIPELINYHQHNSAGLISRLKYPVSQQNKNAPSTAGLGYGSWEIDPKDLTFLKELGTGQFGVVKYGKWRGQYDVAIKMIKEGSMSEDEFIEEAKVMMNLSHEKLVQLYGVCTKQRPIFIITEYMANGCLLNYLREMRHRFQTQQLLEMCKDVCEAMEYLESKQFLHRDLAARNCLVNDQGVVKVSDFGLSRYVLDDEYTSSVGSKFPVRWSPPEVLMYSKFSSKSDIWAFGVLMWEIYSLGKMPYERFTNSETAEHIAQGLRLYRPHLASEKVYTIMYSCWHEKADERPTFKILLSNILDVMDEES

For the molecule `C=CC(=O)N1CCC[C@@H](Nc2nc(Nc3ccc(N4CCN(C)CC4)cc3)nc3[nH]ccc23)C1` [Example 1, (R)-1-(3-(2-(4-(4-methylpiperazin-1-yl)phenylamino)-7H-pyrrolo[2,3-d]pyrimidin-4-ylamino)piperidin-1-yl)prop-2-en-1-one], the figures for the 50% inhibitory concentration (IC50) in assay [1] and in assay [2] were 10.7 nM and 3.73 nM, respectively.

In the case of `C=CC(=O)N1CCC[C@@H](Nc2nc(Nc3cccc(NC(=O)N4CCCC4)c3)nc3[nH]ccc23)C1` [Example 2, (R)-N-(3-(4-(1-acryloylpiperidin-3-ylamino)-7H-pyrrolo[2,3-d]pyrimidin-2-ylamino)phenyl)pyrrolidine-1-carboxamide], the IC50 in assay [1] stood at 27 nM; in assay [2], 8.9 nM.

For `C=CC(=O)N1CCC[C@H](Nc2nc(Nc3cccc(NC(=O)N4CCCC4)c3)nc3[nH]ccc23)C1` [Example 3, (S)-N-(3-(4-(1-acryloylpiperidin-3-ylamino)-7H-pyrrolo[2,3-d]pyrimidin-2-ylamino)phenyl)pyrrolidine-1-carboxamide], the results for the inhibition at 0.1 µM in assay [1] and in assay [2] (setting [3]) were 30% and 28.2%, respectively.

With `C=CC(=O)N1CCC[C@@H](Nc2nc(Nc3ccc(N4CCOCC4)cc3)nc3[nH]ccc23)C1` [Example 4, (R)-1-(3-(2-(4-morpholinophenylamino)-7H-pyrrolo[2,3-d]pyrimidin-4-ylamino)piperidin-1-yl)prop-2-en-1-one], the values for the IC50 in assay [1] and in assay [2] were 26.7 nM and 6.9 nM, respectively.

Turning to `C=CC(=O)N1CCC[C@@H](Nc2nc(Nc3ccc(N4CCCC4)cc3)nc3[nH]ccc23)C1` [Example 5, (R)-1-(3-(2-(4-(pyrrolidin-1-yl)phenylamino)-7H-pyrrolo[2,3-d]pyrimidin-4-ylamino)piperidin-1-yl)prop-2-en-1-one], the IC50 in assay [1] was determined as 76.7 nM; in assay [2], 24.6 nM.

As to `C=CC(=O)N1CCC[C@@H](Nc2nc(Nc3ccc(-n4nc(C)cc4C)cc3)nc3[nH]ccc23)C1` [Example 6, (R)-1-(3-(2-(4-(3,5-dimethyl-1H-pyrazol-1-yl)phenylamino)-7H-pyrrolo [2,3-d]pyrimidin-4-ylamino)piperidin-1-yl)prop-2-en-1-one], the IC50 in assay [1] was 9.6 nM; in assay [2], 4.6 nM.

As for `C=CC(=O)N1CCC[C@@H](Nc2nc(Nc3ccc(OCCN(CC)CC)cc3)nc3[nH]ccc23)C1` [Example 7, (R)-1-(3-(2-(4-(2-(diethylamino)ethoxy)phenylamino)-7H-pyrrolo[2,3-d]pyrimidin-4-ylamino)piperidin-1-yl)prop-2-en-1-one], the half-maximal inhibitory concentration (IC50) in assay [1] is 14 nM; in assay [2], 5 nM.

`C=CC(=O)N1CCC[C@@H](Nc2nc(Nc3ccc(C(=O)N4CCOCC4)cc3)nc3[nH]ccc23)C1` [Example 8, (R)-1-(3-(2-(4-(morpholine-4-carbonyl)phenylamino)-7H-pyrrolo[2,3-d]pyrimidin-4-ylamino)piperidin-1-yl)prop-2-en-1-one]: the results for the IC50 in assay [1] and in assay [2] were 14.3 nM and 1.3 nM, respectively.

Turning to `C=CC(=O)N1CCC[C@@H](Nc2nc(Nc3ccc(N(C)C)cc3)nc3[nH]ccc23)C1` [Example 9, (R)-1-(3-(2-(4-(dimethylamino)phenylamino)-7H-pyrrolo[2,3-d]pyrimidin-4-ylamino)piperidin-1-yl)prop-2-en-1-one], the results for the concentration for half-maximal inhibition (IC50) in assay [1] and in assay [2] were 20.5 nM and 3.9 nM, respectively.

Regarding `C=CC(=O)N1CCC[C@@H](Nc2nc(Nc3cccc(-n4nc(C)cc4C)c3)nc3[nH]ccc23)C1` [Example 10, (R)-1-(3-(2-(3-(3,5-dimethyl-1H-pyrazol-1-yl)phenylamino)-7H-pyrrolo [2,3-d]pyrimidin-4-ylamino)piperidin-1-yl)prop-2-en-1-one], the inhibition at 0.1 µM in assay [1] was determined as 23.7%; in assay [2] (setting [3]), 32.8%.

For the molecule `C=CC(=O)N1CCC[C@H](Nc2nc(Nc3ccc(N4CCN(C)CC4)cc3)nc3[nH]ccc23)C1` [Example 11, (S)-1-(3-(2-(4-(4-methylpiperazin-1-yl)phenylamino)-7H-pyrrolo[2,3-d]pyrimidin-4-ylamino)piperidin-1-yl)prop-2-en-1-one], the inhibition at 0.1 µM in assay [1] was 26.5%; in assay [2] (setting [3]) it was 36%.

With `C=CC(=O)N1CCC[C@@H](Nc2nc(Nc3ccc4ncsc4c3)nc3[nH]ccc23)C1` [Example 12, (R)-1-(3-(2-(benzo[d]thiazol-6-ylamino)-7H-pyrrolo[2,3-d]pyrimidin-4-ylamino)piperidin-1-yl)prop-2-en-1-one], the results for the IC50 in assay [1] and in assay [2] were 10.6 nM and 1.3 nM, respectively.

With `C=CC(=O)N1CCC[C@@H](Nc2nc(Nc3ccc(Oc4ccccc4)cc3)nc3[nH]ccc23)C1` [Example 13, (R)-1-(3-(2-(4-phenoxyphenylamino)-7H-pyrrolo[2,3-d]pyrimidin-4-ylamino)piperidin-1-yl)prop-2-en-1-one], the inhibition at 1 µM in assay [1] (@1uM compound) is 1%; in assay [2] (@1uM compound, printed in the JAK3 IC50 column) it was 0.4%.

Take `C=CC(=O)N1CCC[C@@H](Nc2nc(Nc3cnn(C)c3)nc3[nH]ccc23)C1` [Example 14, (R)-1-(3-(2-(1-methyl-1H-pyrazol-4-ylamino)-7H-pyrrolo[2,3-d]pyrimidin-4-ylamino)piperidin-1-yl)prop-2-en-1-one]: the IC50 was 19.2 nM in assay [1] and 1.1 nM in assay [2].

Regarding `C=CC(=O)N1CCC[C@@H](Nc2nc(Nc3cnn(CC(F)F)c3)nc3[nH]ccc23)C1` [Example 15, (R)-1-(3-(2-(1-(2,2-difluoroethyl)-1H-pyrazol-4-ylamino)-7H-pyrrolo[2,3-d]pyrimidin-4-ylamino)piperidin-1-yl)prop-2-en-1-one], the results for the concentration for half-maximal inhibition (IC50) in assay [1] and in assay [2] were 7.2 nM and 0.3 nM, respectively.

Consider `C=CC(=O)N1CCC[C@@H](Nc2nc(Nc3cnn(C(F)F)c3)nc3[nH]ccc23)C1` [Example 16, (R)-1-(3-(2-(1-(difluoromethyl)-1H-pyrazol-4-ylamino)-7H-pyrrolo[2,3-d]pyrimidin-4-ylamino)piperidin-1-yl)prop-2-en-1-one], for which the values for the IC50 in assay [1] and in assay [2] were 10.1 nM and 0.4 nM, respectively.

Turning to `C=CC(=O)N1CCC[C@@H](Nc2nc(Nc3cnn(CCOC)c3)nc3[nH]ccc23)C1` [Example 17, (R)-1-(3-(2-(1-(2-methoayethyl)-1H-pyrazol-4-ylamino)-7H-pyrrolo[2,3-d]pyrimidin-4-ylamino)piperidin-1-yl)prop-2-en-1-one], the IC50 in assay [1] amounted to 11.8 nM; in assay [2] it was 0.6 nM.

As to `C=CC(=O)N1CCC[C@@H](Nc2nc(Nc3cnn(CCN4CCOCC4)c3)nc3[nH]ccc23)C1` [Example 18, (R)-1-(3-(2-(1-(2-morpholinoethyl)-1H-pyrazol-4-ylamino)-7H-pyrrolo[2,3-d]pyrimidin-4-ylamino)piperidin-1-yl)prop-2-en-1-one], the half-maximal inhibitory concentration (IC50) in assay [1] came to 8.8 nM; in assay [2] it was 0.3 nM.

`C=CC(=O)N1CCC[C@@H](Nc2nc(Nc3cnn(CCN(CC)CC)c3)nc3[nH]ccc23)C1` [Example 19, (R)-1-(3-(2-(1-(2-(diethylamino)ethyl)-1H-pyrazol-4-ylamino)-7H-pyrrolo[2,3-d]pyrimidin-4-ylamino)piperidin-1-yl)prop-2-en-1-one]: the IC50 in assay [1] came out at 8.7 nM; in assay [2], 0.5 nM.
